From patent publication US5475029A, “Farnesyl compounds as cholesterol lowering agents” (The Board of Trustees of the Leland Stanford Junior …, priority 1993, dated 1995)

Experiments:
HMG-CoA reductase [1] = assay: HMG-CoA reductase degradation rate (pulse-chase); format: cell-based; details: 10 μg/ml during chase; untreated 9.3 hours
Protocol: (§1) Measurement of HMGal and HMG-CoA Reductase Degradation Rates Cells grown in 60×15 mm dishes were washed once with ice-cold PBS and starved for 1 hour in 1 ml of methionine-free MEM supplemented with 5% LPS, 250 μg/ml of active geneticin, 10 μM compactin, and 0.1 mM mevalonate. These cells were radio-labeled for 2 hours in 300 μl of the methionine-free starvation medium containing 100 μCi of Tran^35 S-label (>1,000 Ci/mmol). Cells were incubated in an MEM-based chase medium containing 2 mM methionine, 5% LPS, 250 μg/ml of active geneticin, 10 μM compactin, and 0.1 mM mevalonate. During the chase period, some plates also had either 20 mM mevalonate, 10 μg/ml farnesyl acetate or 10 μg/ml ethyl farnesyl ether added to them as indicated in the figure legend. Following the chase, cells were washed, lysed and the HMGal and HMG-CoA reductase proteins were immunoprecipitated, subjected to SDS-PAGE and quantified.
(§2) In order to test whether the farnesyl compounds impact degradation, the rates of degradation for HMGal, HMG-CoA reductase, and total cellular protein were measured in the presence and absence of 10 μg/ml farnesyl acetate and ethyl farnesyl ether.

β-galactosidase = β-galactosidase activity in CHO-Gal control cells; format: cell-based
Protocol: (§3) β-galactosidase Specific Activity--In vitro β-galactosidase activity was measured using the substrate, o-nitrophenyl-β-D-galactopyranoside. Specific activities were calculated using protein concentration values.
(§4) To confirm that the reduction in HMGal activity was the result of a regulatory function specifically targeting the membrane domain of HMGal, the effects of farnesyl acetate on β-galactosidase activity were measured in vitro for both CHO-HMGal cells and CHO-Gal cells. The CHO-Gal cells had been stably transfected with a construct identical to the HMGal construct (using the same vector, promoter, and 5' and 3' flanking regions) except that the construct in the CHO-Gal cells codes for a soluble β-galactosidase protein instead of the HMGal fusion protein with the membrane domain of HMG-CoA reductase. In this experiment, the CHO-Gal cells served to control for any artifacts farnesyl acetate might cause in the β-galactosidase assay or any nonspecific effects farnesyl acetate might have on the rates of protein synthesis or degradation.

CHO-HMGal cells = assay: Cell growth of CHO-HMGal cells in farnesyl compounds; format: cell-based; details: 20 μg/ml
Protocol: (§5) Cell Culture--All cells were grown as monolayers at 37° C. in an atmosphere of 5% CO2. CHO-HMGal cells were grown in minimal essential medium (MEM) supplemented with 0.25 mg/ml active geneticin and either 5% fetal calf serum (FCS) or 5% lipid-poor fetal calf serum (LPS).
Cell growth in farnesyl acetate and ethyl farnesyl ether CHO-HMGal cells were grown in a range of farnesyl acetate and ethyl farnesyl ether concentrations, in order to determine the optimal concentration of the farnesyl compounds to use in subsequent experiments.

total cellular protein = assay: Total cellular protein degradation; format: cell-based; details: 10 μg/ml
Protocol: as §1, §2

[2] = test system: cholesterol biosynthetic pathway; assay: TLC distribution of [3H]acetate-derived non-saponifiable lipids (site of metabolic block); format: cell-based; set-up: radioactivity in the cell-derived fraction co-migrating with lanosterol / radioactivity in the cell-derived fraction co-migrating with squalene / radioactivity in the cell-derived fraction co-migrating with cholesterol / remaining radioactivity in the cell-derived fraction scattered throughout the rest of the TLC lane: concentration or dose not given beside the values
Protocol: Lipid Saponification and Extraction Procedure Saponification and extraction of lipids from cell and media samples was performed as previously described in Bradfute, et al. (1992) J.B.C. 267:18308-18314.
(§6) Thin Layer Chromatography--TLC was performed using Analtech 250 μm silica gel G plates with a hexanes/diethyl ether (1:1) solvent system. Lipid standards were visualized by iodine staining. Bands were scraped from the plate and their radioactivity was measured.
(§7) Quantification of Radioactivity--Samples were suspended in 4 ml of scintillation fluid (Cytoscint from ICN). The radioactivity of the samples was measured using a Beckman LS-7500 scintillation counter.
To determine tile site of tile metabolic block caused by farnesyl acetate and ethyl farnesyl ether, the non-saponifiable lipids from cells grown in the presence of the farnesyl compounds were examined for the accumulation of intermediates in the cholesterol biosynthetic pathway. The cells were only labeled for 1 hour and only treated with the farnesyl compounds during the labeling period; so that any intermediates which accumulated would be as a result of the inhibitory effects of the farnesol compounds and not subsequent regulatory effects on HMG-CoA reductase. CHO-HMGal cells were incubated with [^3 H]acetate and either farnesyl acetate, ethyl farnesyl ether, or no additive. The non-saponifiable lipids were isolated from both the cell, and the medium and separated by TLC.

cholesterol biosynthesis = assay: [3H]acetate incorporation into cholesterol in CHO-HMGal cells; format: cell-based
Protocol: as §6, §7
Subsequently, the cells were labeled for 1,2, and 4 hours with [^3 H]acetate and harvested. The non-saponifiable lipid fraction from each cell type was extracted and separated by TLC. The radioactivity that co-migrated with cholesterol was measured and normalized for the amount of cellular protein.
Farnesyl acetate and ethyl farnesyl ether were only present during the labeling period so that any reduction in incorporation into cholesterol would be the result of inhibition and not a down regulation in HMG-CoA reductase.

HMGal [3] = assay: HMGal activity (in vitro β-galactosidase specific activity) in CHO-HMGal cells; format: cell-based; details: for reduction in HMGal activity at concentrations below the levels toxic to the cells: five isoprenoid compounds tested
Protocol: as §5
Stock Solutions--Stock solutions of farnesyl acetate, ethyl farnesyl ether, and the mixture of 25-hydroxycholesterol with cholesterol were all made in 100% ethanol at 100 times the final concentration. In all experiments in which these compounds were used, there is a final concentration of 1% ethanol in the medium. For control, cells grown with "no additives" or "mevalonate" 100% ethanol was added to the medium to bring the final concentration of ethanol to 1%. The mevalonate stock solution was prepared at a concentration of 2M in 20 mM potassium phosphate buffer (pH 4.5).
as §3
Farnesyl acetate and ethyl farnesyl ether stimulate a reduction in HMGal activity--In an attempt to identify tile non-sterol metabolite(s) that triggers the down regulation of HMG-CoA reductase, five commercially available isoprenoid compounds were tested for their effects on HMGal activity in CHO-HMGal cells. Each of tile compounds tested closely resembled one of tile naturally occurring isoprenoid pyrophosphates, except that the pyrophosphate group had been replaced by either a hydroxyl or an […] group. The compounds tested included: 3-methyl-2-buten-1-ol, the alcohol of the five carbon isoprenoid-dimethylallyl pyrophosphate (a naturally occurring isomer of isopentenyl pyrophosphate); geraniol and geranyl acetate, the alcohol and the […] of the ten carbon isoprenoid-geranyl pyrophosphate; and farnesol and farnesyl acetate, the alcohol and the […] of the fifteen carbon isoprenoid-farnesyl pyrophosphate.
as §4

HMGal [4] = assay: HMGal degradation rate (pulse-chase); format: cell-based; details: 10 μg/ml during chase; untreated 6.4 hours
Protocol: as §1, §2

squalene synthase = assay: Squalene synthase assay (cell lysate); format: biochemical; details: 1 nM to 50 μM
Protocol: Squalene Synthase Assay--The cell lysate was prepared immediately prior to running the assay. Cells were washed three times with PBS, once with a 0.1M potassium phosphate buffer (pH 7.4) containing 5 mM MgCl2 and 5 mM CHAPS, and once with a 0.01M potassium phosphate buffer (pH 7.4) containing 0.5 mM MgCl2 and 0.5 mM CHAPS. Cells were scraped with a rubber policeman in approximately 0.5 ml of the final wash buffer and dounce homogenized with 20 strokes, while on ice. An aliquot of cell lysate was examined with a light microscope to ensure that essentially all cells in the sample were lysed. An additional aliquot of cell lysate was saved for protein determination. […] The squalene was isolated by TLC and the radioactivity of the squalene bands was measured as previously described. […]
Since both farnesyl compounds have a structural similarity to farnesyl pyrophosphate, the substrate for squalene synthase, and some of the farnesyl compounds that have been tested function as a competitive inhibitor of squalene synthase, the effects of farnesyl acetate on in vitro squalene synthase activity was measured. As a positive control, squalene synthase activity was also measured in tile presence of zaragozic acid A, a potent competitive inhibitor of the enzyme. […]

HMGal [5] = assay: HMGal synthesis rate ([35S]methionine incorporation); format: cell-based; details: 20 mM
Protocol: (§8) Measurement of HMGal and HMG-CoA Reductase Synthesis Rates Cells plated into 60×15 mm dishes were grown in 5% LPS MEM with 0.25 mg/ml active geneticin for 24 hours. These cells were washed with PBS and grown for 24 hours in 5% LPS MEM supplemented with 0.25 mg/ml active geneticin, 10 μM compactin and 0.1 mM mevalonate. After 24 hours, the medium was removed, the cells were washed with PBS and the medium was replaced with methionine-free MEM supplemented with 5% LPS, 250 μg/ml of active geneticin, 10 μM compactin, and 0.1 mM mevalonate. In addition, 20 mM mevalonate or 10 μg/ml farnesyl acetate was included in those plates previously treated with these compounds. […] Cells were washed, lysed and the HMGal and HMG-CoA reductase proteins were immunoprecipitated, subjected to SDS-PAGE and quantified. […]
(§9) Farnesyl compounds reduce translation and stimulate degradation of HMG-CoA reductase and HMGal A reduction in HMGal specific activity triggered by the farnesyl compounds could have been the result of a decrease in HMGal synthesis, an increase in HMGal degradation, or a combination of changes in both the synthesis and degradation rates. In order to test whether the farnesyl compounds impact synthesis, the rates of HMGal, HMG-CoA reductase, and total cellular protein synthesis were measured by [^35 S]methionine incorporation in the presence and absence of 10 μg/ml farnesyl acetate.

HMG-CoA reductase [6] = assay: HMG-CoA reductase synthesis rate ([35S]methionine incorporation); format: cell-based; details: 20 mM
Protocol: as §8, §9

[7] = 1 hour labeling with [3H]acetate, compound only during labeling

CCOCC=C(C)CCC=C(C)CCC=C(C)C [ethyl farnesyl ether]
half-life of HMG-CoA reductase (HMG-CoA reductase [1]): 2.9 h | reduction of the half-life of HMG-CoA reductase (HMG-CoA reductase [1]): 70% | change of β-galactosidase activity of CHO-Gal cells (β-galactosidase; 10 μg/ml): insignificant | change of β-galactosidase activity of CHO-Gal cells (β-galactosidase; 20 μg/ml): essentially unchanged | reduction in cell growth (CHO-HMGal cells): approximately 60% | effect on the degradation of total cellular protein (total cellular protein): Neither farnesyl compound had a significant effect | radioactivity in the cell-derived fraction co-migrating with cholesterol [2, 7]: 1% | radioactivity in the cell-derived fraction co-migrating with lanosterol [2, 7]: 48% | radioactivity in the cell-derived fraction co-migrating with squalene [2, 7]: 45% | remaining radioactivity in the cell-derived fraction scattered throughout the rest of the TLC lane [2, 7]: 6% | total non-saponifiable radioactivity found in the medium ([2]; untreated 6%): 14% | total non-saponifiable radioactivity found in the cells ([2]; untreated 94%): 86% | increase in media-derived material co-migrating with farnesol ([2]; versus untreated sample): 2 fold | reduction in [3H]acetate incorporation into cholesterol (cholesterol biosynthesis; 24 hours pretreatment, then labeled 1, 2 and 4 hours, CHO-HMGal cells): 95% | reduction in [3H]acetate incorporation into cholesterol (cholesterol biosynthesis; compound present only during the labeling period, no pretreatment): 98% | reduction of HMGal activity (HMGal [3]; 10 μg/ml, 24 hour treatment): 40% | reduction of HMGal activity (HMGal [3]; 20 μg/ml): 50% | half-life of HMGal (HMGal [4]): 3.0 h | reduction of the half-life of HMGal (HMGal [4]): 50%

CC(C)=CCC/C(C)=C/CO [geraniol, reference compound]
reduction in HMGal activity at concentrations below the levels toxic to the cells (HMGal [3]): only farnesyl acetate stimulated a reduction in HMGal activity

CC(C)=CCO [3-methyl-2-buten-1-ol, reference compound]
reduction in HMGal activity at concentrations below the levels toxic to the cells (HMGal [3]): only farnesyl acetate stimulated a reduction in HMGal activity

C=C(CC[C@]12O[C@H](C(=O)O)[C@@](O)(C(=O)O)[C@](C(=O)O)(O1)[C@H](OC(=O)/C=C/[C@@H](C)C[C@@H](C)CC)[C@H]2O)[C@@H](OC(C)=O)[C@H](C)Cc1ccccc1 [zaragozic acid A, reference compound]
inhibition of in vitro squalene synthase activity (squalene synthase): more than 90%

CC(=O)OC/C=C(\C)CCC=C(C)C [geranyl acetate, reference compound]
reduction in HMGal activity at concentrations below the levels toxic to the cells (HMGal [3]): only farnesyl acetate stimulated a reduction in HMGal activity

CC(C)=CCCC(C)=CCCC(C)=CCO [farnesol, reference compound]
reduction in HMGal activity at concentrations below the levels toxic to the cells (HMGal [3]): only farnesyl acetate stimulated a reduction in HMGal activity

CC(O)(CCO)CC(=O)O (centres unmarked) [mevalonate, reference compound]
reduction in the rate of HMGal synthesis (HMGal [5]): 70% | reduction in HMG-CoA reductase synthesis (HMG-CoA reductase [6]): 70%
